Experiments:
recombinant human Hsp70 = target: T1, recombinant human Hsp70 (Homo sapiens, UniProt P0DMV8); assay: Hsp70 competition assay using YK55 beads, recombinant protein; format: binding; conditions: compared with MRC-5 Hsp70s
T1 construct: purchased Stressgen
Method: FIG. 14. YK5 has a higher affinity for tumor Hsp70s and selectively kills cancer cells. (a-c) Cells were treated with the indicated concentrations of inhibitors for the times presented, and metabolically viable cells by Alamar blue uptake as described in Methods (a). Molecular markers of apoptosis (PARP and caspase-3 cleavage) were analyzed in cells treated for 24 h with indicated concentrations of inhibitors, by western blotting (b, c). Morphology of cells treated for 24 h with vehicle or the indicated inhibitors was analyzed by light microscopy (c). (d) Extracts (500 μg) were incubated overnight with beads containing D-biotin (75 μM) or the indicated concentrations of YK55 added to 50 μl streptavidin beads. HS=heat shocked. (e) SKBr3 (200 μg) and MRC-5 (400 μg) extracts and recombinant human Hsp70 (2 μg) were incubated for 3 h with the indicated concentrations with YK5, followed by precipitation of Hsp70 complexes on YK55-beads (50 μM YK55 added to 50 μl streptavidin beads). Data obtained from three independent experiments were graphed (right). Points, mean; bars, s.d.
In a second experiment, the ability of soluble YK5 to compete YK55-binding to normal and cancer cell Hsp70 species were tested (FIG. 14e). […] Interaction of YK5 was even weaker with recombinant human Hsp70 (FIG. 14e).
Hsp70 Competition Assay Using the YK55 Beads. […]

[1] = system: infiltrating ductal carcinoma tissue; assay: Ex vivo treatment of fresh breast tumor tissue; set-up: species or system human; conditions: 5 μM, 24 h post addition
[2] = system: PBLs, CCD18Co and MRC-5 normal cells; assay: Cytotoxicity in normal cells; format: cell-based
Method: FIG. 14. YK5 has a higher affinity for tumor Hsp70s and selectively kills cancer cells. (a-c) Cells were treated with the indicated concentrations of inhibitors for the times presented, and metabolically viable cells by Alamar blue uptake as described in Methods (a). Molecular markers of apoptosis (PARP and caspase-3 cleavage) were analyzed in cells treated for 24 h with indicated concentrations of inhibitors, by western blotting (b, c). Morphology of cells treated for 24 h with vehicle or the indicated inhibitors was analyzed by light microscopy (c). […]
Because Hsp70 assists in house-keeping functions of normal cells, such as folding of newly synthesized polypeptides, refolding of misfolded proteins, and translocation of proteins through biological membranes, it remains unclear whether pharmacologic interventions which target both Hsp70 and Hsc70 isoforms, such as YK5, are non-toxic to these cells. To address this matter, the cytotoxic effect of YK5 in a panel of normal cells was evaluated, namely peripheral blood leukocytes (PBLs) obtained from healthy blood donors, and cultured normal fibroblasts, such as the colon cells CCD18Co and the lung MRC-5 (FIG. 14a-c). […]
Growth Inhibition Assay. Antiproliferative effects of inhibitors were evaluated using the dye Alamar blue. […]

T1 sequence (P0DMV8 whole entry): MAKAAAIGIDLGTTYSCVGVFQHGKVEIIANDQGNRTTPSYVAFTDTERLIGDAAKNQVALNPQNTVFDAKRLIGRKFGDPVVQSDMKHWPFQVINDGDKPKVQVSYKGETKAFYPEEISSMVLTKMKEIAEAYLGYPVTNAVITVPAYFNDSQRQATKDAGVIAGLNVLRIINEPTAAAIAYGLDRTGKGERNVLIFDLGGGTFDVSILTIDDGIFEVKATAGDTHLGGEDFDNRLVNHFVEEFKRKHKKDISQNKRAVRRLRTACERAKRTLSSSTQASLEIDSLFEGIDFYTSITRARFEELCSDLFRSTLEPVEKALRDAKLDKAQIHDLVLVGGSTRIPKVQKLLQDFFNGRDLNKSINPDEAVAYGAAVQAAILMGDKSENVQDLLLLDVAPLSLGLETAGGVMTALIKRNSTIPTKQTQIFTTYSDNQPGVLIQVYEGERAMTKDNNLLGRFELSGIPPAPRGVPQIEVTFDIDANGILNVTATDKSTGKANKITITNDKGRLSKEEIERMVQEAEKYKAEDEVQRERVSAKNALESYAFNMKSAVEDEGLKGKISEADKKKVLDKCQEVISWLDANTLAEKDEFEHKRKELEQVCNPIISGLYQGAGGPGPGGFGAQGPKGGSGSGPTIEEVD

C=CC(=O)Nc1cc(N)nc(Sc2c(OC)nc(N3CCN(C)CC3)nc2OC)n1 [YK5, N-(6-amino-2-(4,6-dimethoxy-2-(4-methylpiperazin-1-yl)pyrimidin-5-ylthio)pyrimidin-4-yl)acrylamide]
interaction with recombinant human Hsp70 (recombinant human Hsp70): even weaker
tumor cells dead or dying [1]: 60%
cell death in normal cells [2]: minimal

Source: US9567318B2, “Substituted pyrimidine compounds and uses thereof” (Memorial Sloan-Kettering Cancer Center, priority 2009, dated 2017)
